Source: patent publication US12076334B2, “Pharmaceutical composition comprising adenosine derivative for prevention and treatment of retinal disease or optic nerve disease” (FUTURE MEDICINE CO., LTD., priority 2017, dated 2024)
Where two headings read alike, the source gives them in different places.

Experiments:
[1] = test system: photoreceptor cells derived from the mouse retina; test: Mitochondrial membrane potential analysis (JC-1, flow cytometer); type: cell-based; conditions: for R2 (cell distribution, JC-1 flow cytometry): normal control 13.78 ± 1.12; for R1 (cell distribution, JC-1 flow cytometry): normal control 86.22 ± 1.12
Protocol: The prepared solution was stored at −20° C. until use. In addition, 10 mg of CCCP was dissolved in 1 mL of DMSO to prepare a 50 mM CCCP solution. The prepared solution was stored at −20° C. until use. Treatment of the test material was performed after diluting with a serum-free cell culture medium in 1:1000 (v/v). The control group was treated after diluting with DMSO in 1:1000 v/v).
Intracellular mitochondrial cell membrane potential was analyzed using JC-1 reagent. […] Thereafter, […] of JC-1 was treated and incubated for 30 minutes.

[2] = test system: photoreceptor cells derived from mouse retina; test: ELISA of intracellular inflammatory cytokines (TNFα, IL-1β, IL-6) in HMGB-1-treated photoreceptor cells; type: cell-based; conditions: increased by HMGB-1, 24 h
Protocol: (§1) Compound A to be used as a test material was prepared by dissolving in DMSO. The prepared solution was stored at −20° C. until use. Treatment of the test material was treated after diluting to 1:1000 (v/v) in a serum-free cell culture medium. The control group was treated after diluting to 1:1000 (v/v) in DMSO.
In order to confirm the efficacy of the test material in reactions related to angiogenesis and inflammatory response of photoreceptor cells derived from mouse retina, cells cultured for 24 hours under various conditions were recovered and intracellular proteins were extracted using a PRO-PREP protein extraction kit. Quantification of the extracted protein was measured using a BCA protein assay kit. Quantitative analysis of inflammatory cytokines (TNFα, IL-1β, IL-6) present in the cells was analyzed with each ELISA kit.

caspase 3/7 = test: Caspase 3/7 activity assay (Caspase-Glo 3/7); type: cell-based, mouse; conditions: pretreatment 1 hour, then 5 mM glutamic acid 24 hours
Protocol: (§2) The activity of intracellular caspase 3/7 was analyzed by Caspase-Glo 3/7 assay system. […] After adding the kit solution in the same amount as the cell culture medium and reacting for 1 hour, the relative activity was analyzed by measuring the amount of generated luminescence through a microplate reader.

[3] = test system: mouse retina-derived photoreceptor cell; test: Immunoblot of apoptosis-related proteins in glutamic acid-treated photoreceptor cells; type: cell-based
Protocol: (§3) Compound A to be used as a test material was prepared by dissolving in DMSO. The prepared solution was stored at −20° C. until use. In addition, 10 mg of CCCP was dissolved in 1 mL of DMSO to prepare a 50 mM CCCP solution. The prepared solution was stored at −20° C. until use. Treatment of the test material was performed after diluting with a serum-free cell culture medium in 1:1000 (v/v). The control group was treated after diluting with DMSO in 1:1000 v/v).
In order to confirm the efficacy of a test material for angiogenesis-related response and inflammatory response of a mouse retina-derived photoreceptor cell, cells cultured for 24 hours under various conditions were collected and intracellular protein was extracted by using a PRO-PREP protein extraction kit. Quantification of the extracted protein was measured using a BCA protein assay kit. 40 μg of protein was separated by 10% SDS-PAGE and then attached to a PVDF membrane. The protein-attached membrane was reacted with Tris-buffered saline with 0.1% Tween-20 (TBST) containing 5% skim milk for 30 minutes, followed by reactions of primary and secondary antibodies in sequence. The protein expression level was confirmed using photograph by a Fusion Fximage acquisition system. The protein expression level was analyzed by expressing as a relative value using ImageJ.

[4] = test system: photoreceptor cells derived from mouse retina; test: ELISA of VEGF in medium of HMGB-1-treated photoreceptor cells; type: cell-based; conditions: increased by HMGB-1; Compound A 0.1 μM or more; 24 h
Protocol: as §1
In order to confirm the efficacy of the test material in reactions related to angiogenesis of photoreceptor cells derived from mouse retina, the medium of cells cultured for 24 hours under various conditions was collected after centrifugation. Quantitative analysis of VEGF present in the medium was analyzed with the Mouse VEGF Quantikine ELISA Kit.

[5] = test system: photoreceptor cells derived from the mouse retina; test: TUNEL assay and DAPI staining of glutamic acid-induced apoptosis; type: cell-based; conditions: pretreated 1 μM 1 hour, then 5 mM glutamic acid 8 hours; vs glutamic acid only
Protocol: as §3
Quantitative analysis of apoptosis cells was analyzed by DeadEnd™ Fluorometric TUNEL System. […] Cells were washed twice with PBS and fixed with 10% formalin for 15 minutes. Fixed cells were exposed to 0.1% Triton X-100 for 10 minutes. After the cells were reacted with dUTP containing fluorescence, the cut DNA portion was stained and then fixed on a slide with a mounting solution containing DAPI. The stained cells were observed through a fluorescence microscope.

[6] = test system: photoreceptor cells derived from mouse retina; test: Immunoblot of angiogenesis- and inflammation-related proteins in HMGB-1-treated photoreceptor cells; type: cell-based; conditions: 24 h
Protocol: as §1
In order to confirm the efficacy of the test material in reactions related to angiogenesis and inflammatory response of photoreceptor cells derived from mouse retina, cells cultured for 24 hours under various conditions were recovered and intracellular proteins were extracted using a PRO-PREP protein extraction kit. Quantification of the extracted protein was measured using a BCA protein assay kit. 40 μg of protein was separated by 10% SDS-PAGE and then attached to the PVDF membrane. The protein-attached membrane was reacted with TBST (Tris-buffered saline with 0.1% Tween-20) containing 5% skim milk for 30 minutes and the primary antibody and secondary antibody were reacted in sequence. The protein expression level was confirmed by photographing using a Fusion Fximage acquisition system. The protein expression level was analyzed by relative values using ImageJ.
In relation to high mobility group box 1 (HMGB-1), it has been reported that the expression of HMGB-1 was increased when pressure was applied to photoreceptor cells derived from the mouse retina, and when HMGB-1 was treated to photoreceptor cells, angiogenesis-related factors and inflammatory responses increase (Bohm M R et al., Lab Invest, 96, 409-427, 2016). Accordingly, in the present disclosure, the efficacy of adenosine derivatives against angiogenic response and inflammatory response according to damage to photoreceptor cells was verified based on the above reference.

[7] = test system: photoreceptor cells derived from mouse retina; test: RT-PCR mRNA expression of angiogenesis- and inflammation-related factors in HMGB-1-treated photoreceptor cells; type: cell-based; conditions: increased by HMGB-1, 6 h
Protocol: as §1
In order to confirm the efficacy of the test material in reactions related to angiogenesis and inflammatory response of photoreceptor cells derived from mouse retina, cells cultured for 6 hours under various conditions were treated with TRIzol solution to isolate total RNA in cells. After the cDNA was synthesized using specific primers for the target gene (Table 2) and reverse transcriptase in the isolated total RNA, expression of the related factors was confirmed. mRNA expression levels were analyzed by expressing as relative values using ImageJ software.

caspase 8 = test: Caspase 8 activity assay (Caspase-Glo 8); type: cell-based, mouse; conditions: pretreatment 1 hour, then 5 mM glutamic acid 24 hours
Protocol: as §2, with “8” for “3/7”

[8] = test system: photoreceptor cells derived from the mouse retina; test: Cell protective effect against glutamic acid-induced cell death (cell viability); type: cell-based; conditions: n=6, read-out: EC50 (50% effective concentration), protection from glutamic acid-induced apoptosis
Protocol: as §3
This experimental result means that Compound A has a protective effect against glutamic acid-induced apoptosis.

[9] = Cytotoxicity of glutamic acid (cell viability, cell proliferation assay kit); type: cell-based; conditions: mouse; 0-9 mM, 24 hours incubation
[10] = cells treated with the agent only (glutamic acid 5 mM 6 hours, or CCCP)
[11] = changed by glutamic acid, pretreated with Compound A
[12] = increased by glutamic acid, pretreated with Compound A
[13] = pretreatment of Compound A, glutamic acid-treated cells
[14] = HMGB-1 (5 μg/mL), Compound A 2 μM
[15] = HMGB-1 (5 μg/mL), Compound A at least 0.1 μM
[16] = HMGB-1 (5 μg/mL), Compound A at least 0.5 μM
[17] = increased by HMGB-1 (5 μg/mL), Compound A at least 0.5 μM
[18] = pretreated with 1 μM Compound A 1 hour, then 5 mM glutamic acid 6 hours

N#CC(C#N)=NNc1cccc(Cl)c1 [CCCP]
R2 (cell distribution, JC-1 flow cytometry) [1, 10]: 90.58 ± 1.48
R1 (cell distribution, JC-1 flow cytometry) [1, 10]: 9.42 ± 1.48

O[C@@H]1[C@H](O)CS[C@H]1n1cnc2c(NCc3cccc(Cl)c3)nc(Cl)nc21 [Compound A, (2R,3R,4S)-2-(2-chloro-6-(3-chlorobenzylamino)-9H-purin-9-yl)tetrahydrothiophene-3,4-diol]
amount of TNFα in cells (ELISA) ([2]; Compound A 0.1 μM or higher): significantly reduced
amount of IL-1β in cells (ELISA) ([2]; Compound A 1 μM or higher): significantly reduced
amount of IL-6 in cells (ELISA) ([2]; Compound A 1 μM or higher): significantly reduced
activity of caspase 3/7 (caspase 3/7): inhibited in a concentration-dependent manner
BID protein expression [3, 11]: recovered to the same expression level as the normal group
Bad protein expression [3, 11]: recovered to the same expression level as the normal group
Bcl2 protein expression [3, 11]: recovered to the same expression level as the normal group
pBad protein expression [3, 11]: recovered to the same expression level as the normal group
pBcl2 protein expression [3, 11]: recovered to the same expression level as the normal group
RIP protein expression ([3]; decreased by glutamic acid, pretreated with Compound A): increased again in a concentration-dependent manner
caspase 8 protein expression [3, 12]: significantly decreased
cleaved caspase 3 protein expression [3, 12]: significantly decreased
cleaved caspase 9 protein expression [3, 12]: significantly decreased
expression of AIF in the nucleus [3, 13]: decreased significantly
expression of cytochrome c in the cytoplasm [3, 13]: decreased significantly
amount of VEGF (ELISA, medium) [4]: significantly decreased
number of TUNEL-positive nuclei [5]: significantly reduced
ANG1 protein expression [6, 14]: significantly increased
ICAM1 protein expression [6, 14]: significantly decreased
VCAM1 protein expression [6, 14]: significantly decreased
ANG2 protein expression [6, 15]: significantly decreased
MMP9 protein expression [6, 15]: significantly decreased
VEGFR1 protein expression [6, 15]: significantly decreased
COX2 protein expression [6, 16]: significantly reduced
MMP2 protein expression [6, 16]: significantly reduced
VEGF protein expression [6, 17]: significantly reduced
VEGFR2 protein expression [6, 17]: significantly reduced
COX2 mRNA expression ([7]; Compound A 0.1 μM or more): significantly inhibited
IL-6 mRNA expression ([7]; Compound A 0.1 μM or more): significantly inhibited
VEGF mRNA expression ([7]; Compound A 0.1 μM or more): significant decrease
VEGFR1 mRNA expression ([7]; Compound A 0.1 μM or more): significant decrease
MMP9 mRNA expression ([7]; Compound A 0.5 μM or more): significantly reduced
TNFα mRNA expression ([7]; Compound A 0.5 μM or more): significantly reduced
VEGFR2 mRNA expression ([7]; Compound A 0.5 μM or more): significantly decreased
ICAM1 mRNA expression ([7]; Compound A 1 μM or more): significantly reduced
MMP2 mRNA expression ([7]; Compound A 1 μM or more): significantly reduced
VCAM1 mRNA expression ([7]; Compound A 1 μM or more): significantly reduced
activity of caspase 8 (caspase 8): inhibited in a concentration-dependent manner
R2 (cell distribution, JC-1 flow cytometry) [1, 18]: 28.30 ± 1.60
R1 (cell distribution, JC-1 flow cytometry) [1, 18]: 71.70 ± 1.60
EC50 ([8]; pretreatment for 30 min): 0.31 ± 0.08 µM
EC50 ([8]; pretreatment for 1 hour): 0.35 ± 0.06 µM

N[C@@H](CCC(=O)O)C(=O)O [glutamic acid]
R2 (cell distribution, JC-1 flow cytometry) [1, 10]: 63.87 ± 10.42
R1 (cell distribution, JC-1 flow cytometry) [1, 10]: 36.13 ± 10.42
IC50 at 24 h [9]: 5100 ± 500 µM
